No end group written: not given here.
Columns and labels:
Ea.hy926 cells [1] = assay: Cell viability (MTS assay) of modified cells; assay type: cell-based
Experimental: (§1) Cell viability measurements were performed on modified cells after washing with warm PBS twice. Then, the cells were subjected to MTS (3-(4,5-dimethylthiazol-2-yl)-5-(3-carboxymethoxyphenyl)-2-(4-sulfophenyl)-2H-tetrazolium) assay kit (Cell Titer 96 Aqueous One solution Cell Proliferation Assay™) and by following the manufacturer's protocol. All recorded values were normalized to healthy cells untreated with polymers. Platelet activation was performed by PE-labelled anti human […] stain was prepared by diluting 20 times using plasma. An aliquot of each platelet sample was labelled using the diluted PE-labelled anti-human […] solution (1:10 dilution) for 30 minutes at room temperature. Platelets incubated in 0.1 mM TRAP were used as positive control and platelets incubated in PE-labelled IgG were used for non-specific binding control. Each sample was analyzed for 10000 platelet events. Each experiment was replicated using a minimum of 3 donors and each donor was performed in triplicates. For human pancreatic islets, live/dead imaging assay was used for cell viability and DTZ detection assay was used to determine insulin-producing beta cells from mixed cell cultures.

Ea.hy926 cells [2] = assay: Ammonia generation assay for gtTGase ligation on endothelial cells; assay type: cell-based; settings: 4° C.; for NH3 production with TGase isoforms: gtTGase and mTGase, 30 minutes
Experimental: (§2) The solutions were mixed thoroughly and incubated at 4° C. for 30 minutes under static conditions. The cell supernatant was collected and the cells were washed three times with PBS and subjected to further analysis. The assessment of polymer attachment to endothelial cells are assessed by ammonia assay.
The extent of gtTGase ligation was assessed using an ammonia assay kit (Sigma™, MAK310) and used according to the manufacturer's protocols. This kit is used for the quantitative determination of ammonia (NH3), a side product in the gtTGase reaction.^6 This assay is based on the o-phthalaldehyde method in which the reagent reacts with NH3 producing a fluorescent product (λex=360 nm/λm=450 nm), proportional to the NH3 concentration in the sample.^7,8 Briefly, PBS was supplemented with 5 mM CaCl2 and 3 mM dithiothreitol (DTT). In a 96 well plate, containing either endothelial cells or glycine ethyl ether (GEE, amine donor), Q-tagged polymer (acyl donor) and guinea pig liver transglutaminase (gtTGase, Sigma™ T5398) were added to the PBS solution to a final concentration of 5 mM, 0.5 mM and 0.2 U/mL respectively (Vf=100 μL). The reaction was thoroughly mixed and rocked gently at 4° C. for 30 minutes. The sample was diluted four-fold and a 10 μL aliquot of the reaction mixture was then transferred to a tube containing 90 μL complete ammonia assay reagent and mixed thoroughly. The solution was left to react for 15 minutes at ambient temperature in the dark. The fluorescence intensity was measured at λex=360 nm/λem=450 nm using a spectrophotometer and the quantity of ammonia in solution was calculated according to Eq. 1: […]
EA.hy 926 cells plated for 15 days were washed twice with warm PBS before introducing a reaction cocktail containing 0.5 mM polymer, 5 mM CaCl2, 3 mM DTT and 0.2 U/mL transglutaminase made in DMEM media solution without phenol red. The reaction was incubated at 4° C. for 30 minutes. Then the supernatant was removed and subjected to ammonia generation assay and the cells were washed twice with warm PBS to remove unreacted polymers.

[3] = test system: BALB/c aortic allograft in C57/BL/6 recipient; assay: Serum cytokine array after aortic interposition grafting; assay type: in vivo, mouse; settings: 2 days and 15 days post-transplant, 0.5 mM LPGS-Q
Experimental: To assess the immune modulatory effect of enzymatic polymer grafting, an antibody array kit based on a sandwich ELISA principle (Proteome Profiler™, Panel A; R&D Systems™) was used to screen the cytokine and chemokine expression level in sera of animals according to the manufacturer's protocol. Relative expression of 40 murine cytokines and chemokines captured by corresponding antibodies spotted on a nitro-cellulose membrane was determined.
The antibodies for the following cytokines were spotted on the membrane: BLC, C5a, G-CSF, GM-CSF, I-309, Eotaxin, sICAM-1, IFN-g, IL-1a, IL-1b, IL-1ra, IL-2, IL-3, IL-4, IL-5, IL-6, IL-7, IL-10, IL-13, IL-12 p70, IL-16, IL-17 IL-23, IL-27, CXCL10 (IP-10), I-TAC, KC, M-CSF, CCL2 (MCP-1), CCL12 (MCP-5), MIG, CCL3 (MIP-1a), CCL4 (MIP-1b), CXCL2 (MIP-2), CCL5 (RANTES), SDF-1, TARC, TIMP-1, TNF-α, TREM-1. […] Following the blocking step for 1 h at 4° C., a mixture of detection antibody cocktail and 100 μL of serum sample was incubated overnight at 4° C. with the membrane. Captured proteins were labeled with a streptavidin-functionalized IR-Dye (IRDye 680RD Streptavidin; LI-COR) (1:20,000 dilution in 10% bovine serum albumin, 30 min at RT) and scanned using a LI-COR Odyssey Infrared Imaging System™. The software ImageJ™ (Version 1.52s) was used to determine the integrated density of the spots on the array images after background subtraction. […]

EA.hy 926 monolayers = assay: PMS-induced glycocalyx shedding (WGA stain, flow cytometry); assay type: cell-based; settings: compared to non-sulfated counterparts
Experimental: EA.hy 926 cells were grown to confluency. Media was replaced, washed with DPBS and incubated with […] NADH, […] PMS (unless otherwise noted) and the indicated concentration of polymer; with PMS being last to be added. […] The cells were then washed extensively, stained using WGA ([…]) for 15 minutes and harvested to be analyzed using flow cytometry. Neuraminidase enzyme was used as a positive control to shed the glycocalyx.

HMEC-1 cell monolayers = assay: Transendothelial protein passage (FITC-labelled BSA); assay type: cell-based; settings: TNF-α 2000 U/mL, 3 hours; 0.5 mM polymer
[4] = test system: TNF-α activated Ea.hy926 cells co-cultured with IL-2 activated PBMCs; assay: PBMC-mediated cytotoxicity (LDH assay); settings: polymer ligated to cell surface
Experimental: EA.hy 926 monolayers were activated using TNF-α and PBMCs were activated using IL-2 as described in PBMC adhesion experiments. Following activation, PBMC was collected and resuspended in DMEM (Phenol free, 5% FBS, pen/strep). PBMCs were then added to activated EA.hy 926 monolayers (modified and unmodified) to a final concentration of 0.15×10^6 cells/mL and left to incubate at 37° C. and 5% CO2 for 18 hour. After treatment, the supernatant was collected and cell debris was removed through centrifugation. LDH content was measured using LDC cytotoxicity assay (Biovision Inc.™). Cytotoxicity was calculated using the equation below;
where, LDHsample is the amount of LDH released from the sample, LDHPBMC is the amount of LDH released from PBMC samples not subjected to EA.hy 926 monolayers, LDHalive is the amount of LDH released from EA.hy 926 monolayers not subjected to PBMCs, and LDHdead is the amount of LDH released of EA.hy926 monolayers treated with RIPA buffer for 10 minutes at room temperature.

human pancreatic islets = assay: Compatibility of cell surface engineering on pancreatic islets (LIVE/DEAD, DTZ); assay type: cell-based; settings: 0.5 mM polymer, room temperature, 30 minutes
Experimental: FIG. 57: Compatibility of cell surface engineering on human pancreatic islet surfaces using gtTGase. Human pancreatic islets were incubated with 0.5 mM Q-tagged polymer, 0.2 U ml-1 gtTGase, 3 mM GSH and 5 mM CaCl2 at room temperature for 30 minutes. Cell viability was assessed using a LIVE/DEAD stain assay and insulin producing activity was assessed by DTZ detection assay.
as §1, with “For human pancreatic islets, live/dead imaging assay was used for cell viability and DTZ detection assay was used to determine insulin-producing beta cells from mixed cell cultures.” left out

[5] = test system: IL-2 activated PBMCs on TNF-α activated Ea.hy926 monolayers; assay: PBMC adhesion to endothelial surfaces; assay type: cell-based, human
Experimental: Confluent Ea.hy926 monolayers seeded in a 48 well plate (30,000 cells/well) were activated with TNF-α (2000 U/mL, 3 hours). To obtain PBMCs, EDTA anticoagulated blood from healthy donors was subjected to ficoll density gradient centrifugation Histopaque™-1077 (Sigma Aldrich™). PBMCs were cultured for 24 h in RPMI-1640 containing 10% FBS (v/v), 1000 U/mL recombinant human IL-2 (Cedarlane™)^11 and 1% P/S. Prior to fluorescent labelling, cultured PBMCs were tested for absence of platelets by labelling an aliquot of cells with FITC-labelled anti-human […] (1:200 Beckman Coulter™) and analyzed by flow cytometry (CytoFLEX™, Beckman Coulter™). PBMCs containing <1% platelets were implemented for further study. The PBMC composition was also measured using a hematological analyzer (XN-550™ automated hematology analyzer, Sysmex Canada Inc.™). Following IL-2 treatment the typical composition of the PBMCs were ˜80% lymphocytes, 5% immature granulocytes, 2% basophils and 13% monocytes. […] PMBC adhesion was quantified by lysing the cells with RIPA buffer, spinning at 15,000 g to remove cell debris and measuring the fluorescent intensity of the CMFDA Dye in the lysate (λex/λem=492/517 nm using a plate reader (Spectramax3™, Molecular Devices™).

platelets = assay: Platelet activation (CD62, flow cytometry); assay type: cell-based, human; settings: 4° C.
Experimental: as §2
as §1, with “For human pancreatic islets, live/dead imaging assay was used for cell viability and DTZ detection assay was used to determine insulin-producing beta cells from mixed cell cultures.” left out

| Substance | cell viability with TGase isoforms (Ea.hy926 cells [1]) | NH3 production with TGase isoforms (Ea.hy926 cells [2]) | cytokine profile of sera of recipient mice [3] | retention of the glycocalyx structure after exposure to superoxide anions (EA.hy 926 monolayers) | permeability of the monolayer after TNF-α activation (HMEC-1 cell monolayers) | cell metabolic activity after bioconjugation (Ea.hy926 cells [1]) | cell viability under oxidative stress (Ea.hy926 cells [1]; cells grown 15 days, superoxide radicals) | PBMC-mediated endothelial cell death, in words [4] | cell viability and insulin producing activity (human pancreatic islets) | NH3 production (surface ligation efficiency) (Ea.hy926 cells [2]; 0.5 mM polymer, gtTGase, 30 min) | PBMC adhesion, in words [5] | platelet activation (CD62 surface markers) (platelets) |
| --- | --- | --- | --- | --- | --- | --- | --- | --- | --- | --- | --- | --- |
| GQQQLGGGGG-PEG: Q-tagged PEG polymer used to compare TGase isoforms (also: conjugated to PEG, site not given here) [reference compound] | favourable results | favourable results | – | – | – | – | – | – | – | – | – | – |
| Linear polyglycerol sulfate glutamine [LPGS-Q] | – | – | beneficial anti-inflammatory properties post-transplantation | significantly larger retention of the glycocalyx structure | reduce non-specific macromolecule passage | without affecting cell metabolic activity | rescue of the cells viability | reducing PBMC-mediated cytotoxicity | still produce viable cells | higher ammonia production than its non-sulfated counterparts | evading recognition and subsequent adhesion | did not induce platelet activation |
| WLAQRPH-PEG: Q-tagged PEG polymer used to compare TGase isoforms (also: conjugated to PEG, site not given here) [reference compound] | favourable results | favourable results | – | – | – | – | – | – | – | – | – | – |

From US20250059499A1, “CELL-SURFACE ENGINEERING COMPOSITIONS AND METHODS FOR THE PREVENTION OF IMMUNE REJECTION” (THE UNIVERSITY OF BRITISH COLUMBIA, priority 2021, published 2025)
